Measured values: publication PMC11786100, “Chronic GIPR agonism results in pancreatic islet GIPR functional desensitisation” (Molecular Metabolism, 2025)
Like-named read-outs stand apart in the source and are kept apart here.

Tests used:
dispersed islet cells = assay: cADDis cAMP concentration-response in dispersed islets; assay type: cell-based, mouse; settings: for EC50: three-parameter fit, n=5, read-out: calculated EC50, cAMP in dispersed islets
Description: (§1) Primary cultures of mouse hypothalamic neurons and dispersed pancreatic islets were transduced with the Green Up cADDis biosensor (Montana Molecular, US). Pancreatic islets from CAMPER^Pdx−1-CreERT2 and CAMPER^Som-Cre mice were not transduced. Cells were pre-treated with peptides as specified, dissolved in culture media. Following 4 h or overnight incubation and a 1-hour washout period, cells were imaged using an epifluorescence microscope at baseline (t = 3 min), following peptide addition (t = 10 min, unless specified otherwise), and following 3-isobutyl-1-methylxanthine (IBMX) (500 μM) and forskolin (FSK) (50 μM) addition (t = 3 min) to maximally stimulate the sensor. In pre-treatment experiments, islet cell fluorescence was normalised to the IBMX/FSK response which was set as 100%. In non-pre-treatment experiments, islet and neuronal cell fluorescence was normalised to both the baseline and IBMX/FSK response. The area-under-the-curve (AUC) for each cell was quantified. Full details of isolation, transduction, plating, imaging and image analysis is provided in the supplementary methods.
Dispersed islets: A cell suspension of dispersed islets in RPMI-1640 + 10% FBS + 1% P/S (islet complete media) was seeded onto square 96 well µ-plates (Ibidi, UK), coated with 0.01% poly-D-lysine hydrobromide (Sigma-Aldrich, UK) and 25 µg/ml mouse laminin (Thermo Fisher, UK). For cADDis experiments, cells were transduced with the Green Up cADDis biosensor (15 μL of cADDis, 1.5 μL of sodium butyrate per well: Montana Molecular, US). Cells were incubated overnight (37°C, 95%:5% O2:CO2 ratio).
Cells were imaged in Krebs buffer with 6 mM glucose and 0.1% BSA (unless 10% FBS was specified) at 37°C using an automated epifluorescence microscope (modified Nikon Ti-2E with LED illumination). Multiple fields of view (FOV) were imaged in parallel (for islets, multiple wells of a 96 well plate were imaged in parallel), allowing hundreds to thousands of cells to be imaged every minute throughout the time course. For all acquisitions, the first three minutes were baseline recording pre-peptide addition and the last three minutes were a positive control following IBMX (500 μM) and forskolin (50 μM) addition to maximally stimulate the sensor.
cAMP quantification from the raw islet/neuronal images was performed using Fiji v1.54f (NIH). For each acquisition, a flat-field (BaSiC [3*]) correction was applied, and intensity thresholding enabled cell-containing regions to be identified as regions-of-interest (ROIs). The fluorescence intensity of each ROI was measured at each time point. In pre-treatment experiments, islet cell fluorescence was normalised to the maximal IBMX/FSK response which was set as 100%. For non-pre-treatment experiments, neuronal and islet cell fluorescence were normalised to both the baseline and maximal IBMX/FSK response. The AUC during peptide stimulation for each cell was quantified. Neurons with an AUC greater than 75 (representing a response 15 % of the maximum IBMX/FSK response) were deemed responder neurons.
We aimed to determine appropriate pre-treatment doses of GIPR agonists which would produce detectable cAMP responses, indicating target engagement, and were compatible with an extended incubation in complete medium, which could influence ligand availability via binding to serum proteins. We first performed concentration-response analysis in dispersed islets transduced with cADDis in the presence of 10% FBS (Figure S2A, B, D, E).
To determine a sensible re-challenge dose of GIPR agonists, a further concentration-response analysis was conducted in cADDis-transduced dispersed islets in imaging buffer (Krebs buffer + 6 mM glucose + 0.1% BSA, i.e. without FBS) (Figure S2C, F). […] Therefore, 1 μM of GIP108 and 100 nM of GIP were chosen as peri-maximal re-stimulation doses for the remaining islet cAMP assays.
GLP-1R agonist pre-treatment dose selection was performed concurrently with GIPR agonist dose selection.

[1] = Peptide stability in complete medium with dispersed islet cells (cAMP bioactivity assay); assay type: in vitro ADME, mouse
Description: AD-293 cells were added to a 12-well plate and maintained in 2 ml complete DMEM. 1 μg of specified plasmid DNA was added to each well alongside Lipofectamine 2000 (Thermo Fisher, UK). cAMP production was quantified 24 hours following transfection using homogenous time resolved fluorescence (HTRF), specifically the cAMP-Gs Dynamic 2 kit (Cisbio, France). Peptides and cells were diluted in DMEM + 1% P/S + 0.1% BSA. For peptide stability testing, cells, fresh peptide and peptide incubated with dispersed islet cells were diluted in RPMI-1640 (Thermo Fisher, UK) + 10% FBS + 1% P/S. 10 μl of peptide and 10 μl of cell suspension were added in duplicate to an opaque 96-well plate (Grenier Bio-One, Austria) and incubated at 37°C for 30 minutes. 10 μl of cAMP-d2 and anti-cAMP cryptate, both diluted in lysis buffer, were added in quick succession as per the manufacturer’s protocol. The plates were then incubated at room temperature for 45 minutes and read using the SpectraMax i3x (Molecular Devices, US).
Three-parameter curve fitting was applied.

[2] = system: murine hypothalamic neurons; assay: cADDis cAMP imaging in primary hypothalamic neurons; assay type: cell-based, mouse; settings: 5-minute stimulation, n=4
Description: as §1
Primary cultures of hypothalamic neurons were prepared from 6-week-old male and female mice as described previously [2*]. A minor difference was that the neuronal pellet was resuspended in Neurobasal-A medium containing 0.25% Glutamax, 2% B27 and 25 ng/ml NGF (all Thermo Fisher, UK) (neuronal culture media).
Hypothalamic neurons: 100 μL cell suspension of neurons in neuronal culture media was seeded on 35 mm petri dish (MatTek Corporation), pre-coated with 0.01% poly-D-lysine hydrobromide. […]
(§2) cAMP quantification from the raw islet/neuronal images was performed using Fiji v1.54f (NIH). […] The fluorescence intensity of each ROI was measured at each time point. In pre-treatment experiments, islet cell fluorescence was normalised to the maximal IBMX/FSK response which was set as 100%. For non-pre-treatment experiments, neuronal and islet cell fluorescence were normalised to both the baseline and maximal IBMX/FSK response. The AUC during peptide stimulation for each cell was quantified. […]

GLP-1R = target: T1, GLP-1R (Mus musculus, UniProt O35659); assay: Ex vivo islet GLP-1R desensitisation (pre-treat/washout/rechallenge cAMP); assay type: cell-based; settings: dispersed islets, cADDis
T1 construct: from tissue; host or cells: dispersed mouse pancreatic islets
T1 sequence (O35659 22-463): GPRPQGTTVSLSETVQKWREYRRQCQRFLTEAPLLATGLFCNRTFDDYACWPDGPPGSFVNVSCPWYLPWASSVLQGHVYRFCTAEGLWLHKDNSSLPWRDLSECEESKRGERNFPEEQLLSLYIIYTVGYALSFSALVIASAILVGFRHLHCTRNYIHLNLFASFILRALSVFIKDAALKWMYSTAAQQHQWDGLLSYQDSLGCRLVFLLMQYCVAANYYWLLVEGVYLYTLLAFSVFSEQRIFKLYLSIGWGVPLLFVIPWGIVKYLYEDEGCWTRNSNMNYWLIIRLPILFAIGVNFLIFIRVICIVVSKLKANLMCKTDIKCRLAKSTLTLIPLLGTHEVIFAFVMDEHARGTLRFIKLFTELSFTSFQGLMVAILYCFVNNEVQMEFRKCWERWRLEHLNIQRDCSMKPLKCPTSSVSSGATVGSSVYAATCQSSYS
Description: as §1, with “Full details of isolation, transduction, plating, imaging and image analysis is provided in the supplementary methods.” left out
as §2, with “For non-pre-treatment experiments, neuronal and islet cell fluorescence were normalised to both the baseline and maximal IBMX/FSK response.” left out

β2-adrenergic receptor = assay: Ex vivo islet heterologous desensitisation, isoproterenol rechallenge cAMP; assay type: cell-based, mouse; settings: 24-hour pre-treatment with GIP108 (1 μM); dispersed islets, cADDis, n=3
Description: as §1, with “Full details of isolation, transduction, plating, imaging and image analysis is provided in the supplementary methods.” left out
as §2, with “For non-pre-treatment experiments, neuronal and islet cell fluorescence were normalised to both the baseline and maximal IBMX/FSK response.” left out

[3] = imaging buffer (Krebs + 6 mM glucose + 0.1% BSA, without FBS)
[4] = in the presence of 10% FBS, stepwise addition

Row | Compound | doses above which cAMP responses were detectable (dispersed islet cells; [3]) | doses above which cAMP responses were detectable (dispersed islet cells; in the presence of 10% FBS) | EC50 (dispersed islet cells; [4]) [nM] | concentration remaining from 500 nM after 24 hours [1] [nM] | cAMP response of hypothalamic neurons ([2]; 10 and 100 nM) | GLP-1R desensitisation after 4 h pre-treatment (GLP-1R; pre-treatment GLP-1 (10 nM), rechallenge GLP-1 (1 nM), n = 3) | EC50 (dispersed islet cells; imaging buffer (Krebs buffer + 6 mM glucose + 0.1% BSA, without FBS)) [nM] | stability at 24 hours ([1]; 1 μM in complete medium with dispersed islet cells, cAMP bioactivity in mouse GIPR AD-293 cells) | concentration remaining from 500 nM after 24 hours ([1]; peptide at 1 μM in complete medium (RPMI-1640 + 10% FBS + 1% P/S) with dispersed islet cells, 24 h, concentrations halved during assay, read-out cAMP in mouse GIPR-expressing AD-293 cells, n=4) [nM] | cAMP response of hypothalamic neurons ([2]; 100 nM and 1 μM) | cAMP response to isoproterenol (1 μM) after GIP108 pre-treatment (β2-adrenergic receptor) | cAMP response to GLP-1 (100 nM) after GIP108 pre-treatment (GLP-1R; 24-hour pre-treatment with GIP108 (1 μM), n=3)
1 | GLP-1(7–36)·NH2 | above 0.1 nM | above 0.1 nM | 0.295 | 0.177 | significant responses | partial GLP-1R desensitisation, this was not statistically significant | – | – | – | – | – | –
2 | CC[C@H](C)[C@H](NC(=O)[C@H](CO)NC(=O)[C@H](Cc1ccc(O)cc1)NC(=O)[C@H](CC(=O)O)NC(=O)[C@H](CO)NC(=O)[C@@H](NC(=O)[C@H](Cc1ccccc1)NC(=O)[C@@H](NC(=O)CNC(=O)[C@H](CCC(=O)O)NC(=O)C(C)(C)NC(=O)[C@@H](N)Cc1ccc(O)cc1)[C@@H](C)O)[C@@H](C)CC)C(=O)N[C@@H](C)C(=O)N[C@@H](CC(C)C)C(=O)N[C@@H](CC(=O)O)C(=O)N[C@@H](CCCCN)C(=O)N[C@H](C(=O)N[C@@H](Cc1c[nH]cn1)C(=O)N[C@@H](CCC(N)=O)C(=O)N[C@@H](CCC(N)=O)C(=O)N[C@@H](CC(=O)O)C(=O)N[C@@H](Cc1ccccc1)C(=O)N[C@H](C(=O)N[C@@H](CC(N)=O)C(=O)N[C@@H](Cc1c[nH]c2ccccc12)C(=O)N[C@@H](CC(C)C)C(=O)N[C@@H](CC(C)C)C(=O)N[C@@H](C)C(=O)N[C@@H](CCC(N)=O)C(=O)N[C@@H](CCCCN)C(=O)NCC(=O)N[C@@H](CCCCNC(=O)CC[C@H](NC(=O)CCCCCCCCCCCCCCCCCCC(=O)O)C(=O)O)C(=O)N[C@@H](CCCCN)C(=O)N[C@@H](CC(N)=O)C(=O)N[C@@H](CC(=O)O)C(=O)N[C@@H](Cc1c[nH]c2ccccc12)C(=O)N[C@@H](CCCCN)C(=O)N[C@@H](Cc1c[nH]cn1)C(=O)N[C@@H](CC(N)=O)C(=O)N[C@H](C(=O)N[C@H](C(=O)N[C@@H](CCC(N)=O)C(=O)O)[C@@H](C)O)[C@@H](C)CC)C(C)C)[C@@H](C)CC [GIP108] | above 10 nM | above 100 nM | 1960 | – | – | – | 218 | remained partially stable at 24 hours | 215 | failed to show detectable responses | remained intact | small but significant decrease
